Reference: patent publication EP3655424B1, “PEPTIDES MODULATING SPERM MOTILITY BY MODULATING THE PHOSPHOPROTEIN PHOSPHATASE 1 COMPLEX” (University of Wolverhampton, priority 2017, dated 2021)
Where two headings read alike, the source gives them in different places.

How the values were obtained:
bovine spermatozoa [1] = assay: Motility assay (Sperm Class Analyzer CASA System), bovine sperm; format: cell-based; conditions: for concentration-dependent effect on motility parameters: 10 µM versus 20 µM
Method: (§1) This study was approved by the Ethics and Internal Review Board of the Hospital Infante D. Pedro E.P.E. (Aveiro, Portugal) and was conducted in accordance with the ethical standards of the Helsinki Declaration. Human semen samples were obtained from a randomized group of donors, by masturbation to a sterile container. All donors signed informed consent allowing the samples to be used for scientific purposes. Basic semen analysis was performed according to World Health Organization (WHO) guidelines. Fresh semen from Holstein Frisian bulls was obtained from LusoGenes, LDA (Aveiro, Portugal). Semen was collected by artificial vagina and assessed by a certified veterinarian. Human and bovine spermatozoa were isolated and washed from seminal plasma by centrifugation (800 g for 5 min, 3 times) using ALLGrade Wash medium (LifeGlobal, Brussels, Belgium). Spermatozoa pellets were resuspended in medium to a final concentration of 20x10^6 cells/0.5 mL and incubated at 37°C with 5 % CO2 until the appropriated treatments were added.
(§2) Peptides (PPP1CC2-CT, TAMRA-PPP1CC2-CT, AKAP4 and AKAP4 M) were added to bovine and human sperm samples in total volume of 500 µl containing approximately 2 x10^7 sperm cells per well. Control samples included sperm cells in medium alone. The influence of bioportides on sperm motility parameters was assessed using the Sperm Class Analyzer CASA System (Microptic S L, Barcelona, Spain) with SCA® v5.4 software. Samples and controls (2 µl) were loaded into individual chambers of Leja Standrat Count 8 chamber slide 20 µm depth (Leja Products B. V., The Netherlands) which were pre-heated at 37 °C. This temperature was maintained while at least 1000 sperm cells/per measurement were evaluated. Each peptide was tested on samples from 3 individual donors and all the conditions were performed in triplicate.
(§3) Bovine and human spermatozoa were exposed to different extracellular peptide concentrations (10 and 20 µM) and motility parameters were assessed at 1 and 2 h. For reference, negative controls were performed in the absence of peptides.

human spermatozoa [2] = assay: Motility assay (Sperm Class Analyzer CASA System), human sperm; format: cell-based; conditions: for motility parameters / immotile spermatozoa increased (printed: mean decrease) / mean decrease in fast progressive motility / mean decrease in non-progressive motility / mean decrease in slow progressive motility: human spermatozoa; for immotile spermatozoa increased (printed: mean decrease) / mean decrease in fast progressive motility / mean decrease in non-progressive motility / mean decrease in slow progressive motility: 20 µM
Method: as §1, §2, §3

bovine spermatozoa [3] = assay: Intracellular accumulation / quantitative translocation of TAMRA-labelled peptides, bovine sperm; format: cell-based
Method: (§4) Isolated bovine and human spermatozoa (4 x10^7 cells) were suspended and incubated with 10 µM TAMRA-labeled peptides for 1 h at 37 °C in a humidified atmosphere of 95% air/5 % CO2. Cells were then washed three times (800 g for 5 min) in ALLGrade Wash medium (LigeGlobal, Brussels, Belgium). To confirm if the fluorescently labeled peptides were not merely surface associated, the sperm cell population was divided in two and a trypsin incubation was used to remove any surface associated peptides. In summary, half of the cells were set aside (2 x10^7 cells) and fixed in 4 % paraformaldehyde (PFA) for 20 min. The other half was incubated with 1 % (wt/vol) trypsin at 37 °C, collected by centrifugation at 3000 g, washed in ALLGrade Wash medium (LigeGlobal, Brussels, Belgium) and resuspended in 4 % PFA 20 min. Fixed cells from each preparation were spread into coverslips and allowed to air dry. After mounting, slides were assessed by fluorescence microscopy (Imager.Z1, Axio-Cam HRm camera and AxioVision software, Zeiss, Jena, Germany). Translocation efficacies of CPP-mediated intracellular delivery of the peptides sequences were determined by the quantitative uptake analysis of fluorescently labeled moieties^[3]. Isolated bovine and human spermatozoa were incubated with 10 µM TAMRA-labeled peptides for 1 h at 37 °C in a humidified atmosphere of 5 % CO2. Cells were then washed four times with PBS, detached with 1 % (w/v) trypsin at 37 °C, collected by centrifugation at 3000 g and lysed in 300 µl 0.1 M NaOH for 2 h on ice. 250 µl of each sample cell lysate were transferred to a black 96-well plate, and analyzed using an Infinite® 200 PRO (Tecan, Switzerland) (λAbs 544 nm/λEm 590 nm).

human spermatozoa [4] = assay: Intracellular accumulation / quantitative translocation of TAMRA-labelled peptides, human sperm; format: cell-based
Method: as §4, with “Isolated bovine and human spermatozoa (4 x10^7 cells) were suspended and incubated with 10 µM TAMRA-labeled peptides for 1 h at 37 °C in a humidified atmosphere of 95% air/5 % CO2.” left out, “Isolated bovine and human spermatozoa were incubated with 10 µM TAMRA-labeled peptides for 1 h at 37 °C in a humidified atmosphere of 5 % CO2.” left out

bovine spermatozoa [5] = format: cell-based
Method: Bovine spermatozoa viability was evaluated using the trypan blue viability test according to manufacturer's guidelines. Human spermatozoa viability was measured using the CellTiter 96® AQueous Non-Radioactive Cell Proliferation Assay (Promega, Madison, USA) according to manufacturer's guidelines.

PPP1CC2-AKAP4 complex = assay: Disruption of PPP1CC2-AKAP4 complex purified from human sperm (Figure 6B); format: binding; conditions: co-incubation, AKAP4-BM at 10 µM
Method: To establish that the detected fluorescence was not attributed to surface-associated peptide, isolated sperm cells were incubated for 1h with 10µM TAMRA-labelled peptide and subsequently treated with 1% (w/v) trypsin to remove any peptide bound to the surface of spermatozoa. Negative controls without the TAMRA-labelled peptides were performed and presented no reactivity. Images are representative from three independent experiments. Lower panel (right): Quantitative analyses of peptide translocation into bovine and human spermatozoa. Bovine and human spermatozoa were incubated with TAMRA-labelled bioportides (10µM) for 1 h at 37°C. Data are expressed as fluorescence (minus negative control). Three independent experiments were performed in quadruplicate. […] Graph bars represent the mean values of three independent experiments performed in triplicate. Error bars 95% CI. […] Graph bars represent the mean values of three independent experiments performed in triplicate. Error bars 95% CI. […] Images are representative from 3 independent experiments. […] A PPP1CC2-AKAP4 complex was purified from human sperm (Lane 1, left). […] 12, a PPP1 inhibitor, was used as a positive control and, as expected, also decreases the interaction (lane 4). […]

[6] = 10 µM, 1h, compared with negative control
[7] = 10 µM, 2h, compared with AKAP4-BM M
[8] = 10 µM, 2h, compared with negative control
[9] = 20 µM, 1h, compared with AKAP4-BM M
[10] = 20 µM, 1h, compared with negative control
[11] = 20 µM, 2h, compared with AKAP4-BM M
[12] = 20 µM, 2h, compared with negative control
[13] = 1h, compared with negative control
[14] = 2h, compared with negative control

Substance: AKAP4-BM M: mutated homologue (GQQDQDRAAAAAVDVSTLNV) of AKAP4-BM coupled to the Penetratin CPP, used as a control [reference compound]
- motility parameters (bovine spermatozoa [1]; compared with negative control, two exceptions: fast progressive motility at 1h with 20 µM, immotile spermatozoa with 10 µM at 1h): did not lead to significant differences
- motility parameters (human spermatozoa [2]; compared with negative control, one exception: fast progressive motility at 2h with 20 µM): did not lead to significant differences
- internalization (microscopic analyses) (bovine spermatozoa [3]; bovine spermatozoa, 10 µM TAMRA-labelled peptide, 1 h, 37 °C, trypsin treated): internalized less efficiently
- intracellular accumulation of red fluorescent (TAMRA) analogues (human spermatozoa [4]; human spermatozoa, 5 µM, Figure 6A): accumulate within normal healthy human spermatozoa
- internalization (microscopic analyses) (human spermatozoa [4]; human spermatozoa, 10 µM TAMRA-labelled peptide, 1 h, 37 °C, trypsin treated): internalized less efficiently

Substance: GQQDQDRKVICFVDVSTLNVRQIKIWFQNRRMKWKK [AKAP4-BM]
- concentration-dependent effect on motility parameters (bovine spermatozoa [1]): concentration-dependent effect
- mean decrease in fast progressive motility (bovine spermatozoa [1]; 10 µM, 1h, compared with AKAP4-BM M): 41.9 ± 20.0%
- mean decrease in fast progressive motility (bovine spermatozoa [1]; [6]): 49.8 ± 22.5%
- mean decrease in fast progressive motility (bovine spermatozoa [1]; [7]): 43.9 ± 15.3%
- mean decrease in slow progressive motility (bovine spermatozoa [1]; [7]): 21.6 ± 64.4%
- mean decrease in fast progressive motility (bovine spermatozoa [1]; [8]): 50.5 ± 9.7%
- mean decrease in slow progressive motility (bovine spermatozoa [1]; [8]): 42.4 ± 20.4%
- mean decrease in fast progressive motility (bovine spermatozoa [1]; [9]): 95.0 ± 6.5%
- mean decrease in non-progressive motility (bovine spermatozoa [1]; [9]): 63.1 ± 8.3%
- immotile spermatozoa, mean increase (bovine spermatozoa [1]; [10]): 91.8 ± 25.4%
- mean decrease in non-progressive motility (bovine spermatozoa [1]; [10]): 50.0 ± 10.9%
- mean decrease in slow progressive motility (bovine spermatozoa [1]; [10]): 95.3 ± 4.8%
- mean decrease in fast progressive motility (bovine spermatozoa [1]; [11]): 98,4 ± 2,6%
- mean decrease in non-progressive motility (bovine spermatozoa [1]; [11]): 63.0 ± 7.5%
- mean decrease in slow progressive motility (bovine spermatozoa [1]; [11]): 94.1 ± 4.9%
- immotile spermatozoa, mean increase (bovine spermatozoa [1]; [12]): 183.7 ± 88.4%
- mean decrease in fast progressive motility (bovine spermatozoa [1]; [12]): 98.6 ± 2.9%
- mean decrease in slow progressive motility (bovine spermatozoa [1]; [12]): 94.2 ± 4.8%
- progressive motility (human spermatozoa [2]; human sperm, Figure 6C left panel): statistically significant decrease in progressive motility
- percentage of immotile spermatozoa (human spermatozoa [2]; human sperm, Figure 6C middle panel): corresponding increase in the percentage of immotile spermatozoa
- immotile spermatozoa increased (printed: mean decrease) (human spermatozoa [2]; 1h, compared with AKAP4-BM M): 47.3 ± 19.2%
- mean decrease in fast progressive motility (human spermatozoa [2]; 1h, compared with AKAP4-BM M): 87.0 ± 4.3%
- mean decrease in non-progressive motility (human spermatozoa [2]; 1h, compared with AKAP4-BM M): 43.4 ± 24.8%
- mean decrease in slow progressive motility (human spermatozoa [2]; 1h, compared with AKAP4-BM M): 85.1 ± 5.2%
- immotile spermatozoa increased (printed: mean decrease) (human spermatozoa [2]; [13]): 63.0 ± 27.8%
- mean decrease in fast progressive motility (human spermatozoa [2]; [13]): 49.8 ± 22.5%
- mean decrease in non-progressive motility (human spermatozoa [2]; [13]): 31.0 ± 26.9%
- mean decrease in slow progressive motility (human spermatozoa [2]; [13]): 87,6 ± 5,2%
- immotile spermatozoa increased (printed: mean decrease) (human spermatozoa [2]; 2h, compared with AKAP4-BM M): 41.9 ± 14.7%
- mean decrease in fast progressive motility (human spermatozoa [2]; 2h, compared with AKAP4-BM M): 82.7 ± 20.7%
- mean decrease in non-progressive motility (human spermatozoa [2]; 2h, compared with AKAP4-BM M): 50.6 ± 21.0%
- mean decrease in slow progressive motility (human spermatozoa [2]; 2h, compared with AKAP4-BM M): 82.3 ± 11.5%
- immotile spermatozoa increased (printed: mean decrease) (human spermatozoa [2]; [14]): 74.5 ± 28.3%
- mean decrease in fast progressive motility (human spermatozoa [2]; [14]): 50.5 ± 9.7%
- mean decrease in non-progressive motility (human spermatozoa [2]; [14]): 58.6 ± 16.1%
- mean decrease in slow progressive motility (human spermatozoa [2]; [14]): 85,7 ± 8,7%
- percentage of viable spermatozoa (bovine spermatozoa [5]): slight decrease
- internalization (microscopic analyses) (bovine spermatozoa [3]): internalized very efficiently
- internalization (microscopic analyses) (human spermatozoa [4]): internalized very efficiently
- interaction between PPP1CC2 and AKAP4 (PPP1CC2-AKAP4 complex): disrupts the PPP1CC2-AKAP4 complex

Substance: RQIKIWFQNRRMKWKKKPNATRPVTPPRVASGLNPSIQKASNYRNNTVLY (H-RQIKIWFQNRRMKWKKKPNATRPVTPPRVASGLNPSIQKASNYRNNTVLY-NH2) [PPP1CC2-CT]
- concentration-dependent effect on motility parameters (bovine spermatozoa [1]): no concentration-dependent effect
- immotile spermatozoa, mean increase (bovine spermatozoa [1]; [6]): 72.5 ± 33.6%
- mean decrease in fast progressive motility (bovine spermatozoa [1]; [6]): 55.9 ± 19.4%
- mean decrease in slow progressive motility (bovine spermatozoa [1]; [6]): 49.9 ± 41%
- immotile spermatozoa, mean increase (bovine spermatozoa [1]; [8]): 128.3 ± 85.3%
- mean decrease in fast progressive motility (bovine spermatozoa [1]; [8]): 53.9 ± 19.9%
- mean decrease in slow progressive motility (bovine spermatozoa [1]; [8]): 17.4 ± 57%
- immotile spermatozoa, mean increase (bovine spermatozoa [1]; [10]): 86.2 ± 72.3%
- mean decrease in fast progressive motility (bovine spermatozoa [1]; [10]): 64.2 ± 8.3%
- mean decrease in slow progressive motility (bovine spermatozoa [1]; [10]): 31.4 ± 35%
- mean decrease in fast progressive motility (bovine spermatozoa [1]; [12]): 44.6 ± 9.7%
- non-progressive motility (bovine spermatozoa [1]; 10 and 20 µM, 1 and 2 h, Figure 3): No significant alterations
- motility parameters (human spermatozoa [2]; 10 µM): did not induce any significant alterations
- mean decrease in fast progressive motility (human spermatozoa [2]; [14]): 34.5 ± 12.3%
- internalization (microscopic analyses) (bovine spermatozoa [3]): internalized very efficiently
- internalization (microscopic analyses) (human spermatozoa [4]): internalized very efficiently
